Non-standard residues stand in square brackets, D forms with d. Residues, ends and D or L forms follow the SMILES beside them. *: point of attachment. Met(O2) = CS(=O)(=O)CC[CH](N)C(=O)O; Palmitoyl = CCCCCCCCCCCCCCCC(=O)*; Ava = NCCCCC(=O)O
Assays:
dermal NHF = assay: Immunostaining method for collagen I on dermal NHF (Table 7); type: cell-based, human; conditions: Table 7 Test 2
Text: Table 7 Showing % Differences in Collagen I in the Dermis Compared to the Control for Dioxygenated Peptide Compounds According to the Immunostaining Method or to ELISA Test on Dermal NHF

[1] = tested on: Normal human dermal fibroblasts (NHF); assay: ELISA test on normal human dermal fibroblasts (NHF): macromolecules in culture supernatants; type: cell-based; conditions: Table 7 Test 1
Experimental: ELISA Test on Normal Human Dermal Fibroblasts (NHF)
This test examines the dermal molecules.
Normal human dermal fibroblasts are cultured in multi-well plates. The cells either are or are not placed in contact with the test substances for 3 days. The culture supernatants are removed and the quantity of macromolecules present (collagen I, fibronectin, collagen IV and hyaluronic acid) is assayed by ELISA.

Molecule: CCCCCCCCCCCCCCCC(=O)NCCCCC(=O)NC(CCS(C)(=O)=O)C(N)=O (stereo not drawn) [Pal-Ava-MO2-NH2]
- Collagen I in the dermis, Test 2 (% difference compared to the control) (dermal NHF; 2 ppm): +495%
- Collagen I in the dermis, Test 2 (% difference compared to the control) (dermal NHF; 4 ppm): +667%
- Collagen I in the dermis, Test 2 (% difference compared to the control) (dermal NHF; 6 ppm): +557%

Molecule: CCCCCCCCCCCCCCCC(=O)NC(CCS(C)(=O)=O)C(=O)NCCCCC(N)=O (stereo not shown) [Pal-MO2-Ava-NH2]
- Collagen I in the dermis, Test 2 (% difference compared to the control) (dermal NHF; 2 ppm): +375%
- Collagen I in the dermis, Test 2 (% difference compared to the control) (dermal NHF; 4 ppm): +582%
- Collagen I in the dermis, Test 2 (% difference compared to the control) (dermal NHF; 6 ppm): +461%

Molecule: CCCCCCCCCCCCCCCC(=O)NC(CCS(C)(=O)=O)C(=O)NC(CCCCN)C(=O)O (stereo not shown) [Pal-MO2-K-OH] (Palmitoyl-[Met(O2)]-Lys-OH; configuration not given here)
- Collagen I in the dermis, Test 2 (% difference compared to the control) (dermal NHF; 2 ppm): +270%
- Collagen I in the dermis, Test 2 (% difference compared to the control) (dermal NHF; 4 ppm): +457%
- Collagen I in the dermis, Test 2 (% difference compared to the control) (dermal NHF; 6 ppm): +226%

Molecule: Pal-K-Ava-MO2-K-OH: Dioxygenated peptide compound, SEQ ID NO 35 (Palmitoyl-K[Ava][Met(O2)]K-OH; SMILES CCCCCCCCCCCCCCCC(=O)N[C@@H](CCCCN)C(=O)NCCCCC(=O)N[C@@H](CCS(C)(=O)=O)C(=O)N[C@@H](CCCCN)C(=O)O)
- Collagen I in the dermis, Test 1 (% difference compared to the control) ([1]; 2 ppm): +63%
- Collagen I in the dermis, Test 1 (% difference compared to the control) ([1]; 4 ppm): +167%

Molecule: Pal-K-F-MO2-K-OH: Dioxygenated peptide compound, SEQ ID NO 31 (Palmitoyl-KF[Met(O2)]K-OH; SMILES CCCCCCCCCCCCCCCC(=O)N[C@@H](CCCCN)C(=O)N[C@@H](Cc1ccccc1)C(=O)N[C@@H](CCS(C)(=O)=O)C(=O)N[C@@H](CCCCN)C(=O)O)
- Collagen I in the dermis, Test 1 (% difference compared to the control) ([1]; 4 ppm): +80%
- Collagen I in the dermis, Test 1 (% difference compared to the control) ([1]; 6 ppm): +81%

Molecule: Pal-K-MO2-Ava-K-OH: Dioxygenated peptide compound, SEQ ID NO 36 (Palmitoyl-K[Met(O2)][Ava]K-OH; SMILES CCCCCCCCCCCCCCCC(=O)N[C@@H](CCCCN)C(=O)N[C@@H](CCS(C)(=O)=O)C(=O)NCCCCC(=O)N[C@@H](CCCCN)C(=O)O)
- Collagen I in the dermis, Test 1 (% difference compared to the control) ([1]; 2 ppm): +75%

Molecule: Pal-K-MO2-F-K-OH: Dioxygenated peptide compound, SEQ ID NO 34 (Palmitoyl-K[Met(O2)]FK-OH; SMILES CCCCCCCCCCCCCCCC(=O)N[C@@H](CCCCN)C(=O)N[C@@H](CCS(C)(=O)=O)C(=O)N[C@@H](Cc1ccccc1)C(=O)N[C@@H](CCCCN)C(=O)O)
- Collagen I in the dermis, Test 1 (% difference compared to the control) ([1]; 4 ppm): +91%

Molecule: Pal-K-MO2-T-K-OH: Dioxygenated peptide compound, SEQ ID NO 33 (Palmitoyl-K[Met(O2)]TK-OH; SMILES CCCCCCCCCCCCCCCC(=O)N[C@@H](CCCCN)C(=O)N[C@@H](CCS(C)(=O)=O)C(=O)N[C@H](C(=O)N[C@@H](CCCCN)C(=O)O)[C@@H](C)O)
- Collagen I in the dermis, Test 1 (% difference compared to the control) ([1]; 4 ppm): +45%
- Collagen I in the dermis, Test 1 (% difference compared to the control) ([1]; 6 ppm): +194%
- Collagen I in the dermis, Test 2 (% difference compared to the control) (dermal NHF; 4 ppm): +192%
- Collagen I in the dermis, Test 2 (% difference compared to the control) (dermal NHF; 6 ppm): +217%

Molecule: Pal-K-T-F-MO2-NH2: Dioxygenated peptide compound, SEQ ID NO 32 (Palmitoyl-KTF[Met(O2)]-NH2; SMILES CCCCCCCCCCCCCCCC(=O)N[C@@H](CCCCN)C(=O)N[C@H](C(=O)N[C@@H](Cc1ccccc1)C(=O)N[C@@H](CCS(C)(=O)=O)C(N)=O)[C@@H](C)O)
- Collagen I in the dermis, Test 1 (% difference compared to the control) ([1]; 4 ppm): +106%
- Collagen I in the dermis, Test 1 (% difference compared to the control) ([1]; 6 ppm): +121%
- Collagen I in the dermis, Test 2 (% difference compared to the control) (dermal NHF; 2 ppm): +267%
- Collagen I in the dermis, Test 2 (% difference compared to the control) (dermal NHF; 4 ppm): +420%
- Collagen I in the dermis, Test 2 (% difference compared to the control) (dermal NHF; 6 ppm): +400%

Molecule: Pal-K-T-MO2-K-OH: Dioxygenated peptide compound, SEQ ID NO 30 (Palmitoyl-KT[Met(O2)]K-OH; SMILES CCCCCCCCCCCCCCCC(=O)N[C@@H](CCCCN)C(=O)N[C@H](C(=O)N[C@@H](CCS(C)(=O)=O)C(=O)N[C@@H](CCCCN)C(=O)O)[C@@H](C)O)
- Collagen I in the dermis, Test 1 (% difference compared to the control) ([1]; 4 ppm): +75%
- Collagen I in the dermis, Test 1 (% difference compared to the control) ([1]; 6 ppm): +161%
- Collagen I in the dermis, Test 2 (% difference compared to the control) (dermal NHF; 2 ppm): +273%
- Collagen I in the dermis, Test 2 (% difference compared to the control) (dermal NHF; 4 ppm): +341%
- Collagen I in the dermis, Test 2 (% difference compared to the control) (dermal NHF; 6 ppm): +262%

Molecule: Pal-MO2-T-K-F-OH: Dioxygenated peptide compound, SEQ ID NO 29
- Collagen I in the dermis, Test 1 (% difference compared to the control) ([1]; 4 ppm): +111%
- Collagen I in the dermis, Test 1 (% difference compared to the control) ([1]; 6 ppm): +148%
- Collagen I in the dermis, Test 2 (% difference compared to the control) (dermal NHF; 2 ppm): +218%
- Collagen I in the dermis, Test 2 (% difference compared to the control) (dermal NHF; 4 ppm): +456%
- Collagen I in the dermis, Test 2 (% difference compared to the control) (dermal NHF; 6 ppm): +520%
